Measurements taken from patent publication US20140371162A1, “COMBINATION THERAPY COMPRISING SGLT INHIBITORS AND DPP4 INHIBITORS” (MITSUBISHI TANABE PHARMA CORPORATION, priority 2008, published 2014).

How the values were obtained:
[1] = system: plasma active GLP-1 level; assay: Plasma active GLP-1 level in glucose-loaded normal (DPP4-positive) rats, Example 2; format: in vivo, rat; settings: DPP4-positive male Fisher rats, mean ± SEM, n=6
Description: DPP4-positive male Fisher rats (purchased from Japan SLC, Inc.)
Each test compound was suspended in a solution of 0.5% carboxymethyl cellulose containing 0.2% Tween 80 at the doses indicated in Table 2, and administered to the test group orally at a volume of 5 mL/kg. The vehicle control group was orally administered a solution of 0.5% carboxymethyl cellulose containing 0.2% Tween 80 at a volume of 5 mL/kg. Just after the administration of the compound or vehicle, a glucose solution (2 g/kg/5 mL) was given orally.
Blood was collected from the caudal vein of an unanesthetized rat just before and 0.2, 0.5, 1, and 2 hours after glucose loading. Plasma active GLP-1 level was determined by using RAT ENDOCRINE LINCOplex KIT (LINCO Research).

[2] = system: plasma active GLP-1 level; assay: Plasma active GLP-1 level in glucose-loaded diabetic mice; format: in vivo; settings: male db/db mice, mean ± SEM, n=8
Description: Male BKS.Cg−+Lepr^db/+Lepr^db/Jcl mice; an Animal Model of Type 2 Diabetes (Purchased from CLEA Japan, Inc.)
Each test compound was suspended in a solution of 0.5% carboxymethyl cellulose containing 0.2% Tween 80 at the doses indicated in Table 3, and administered to the test group orally at a volume of 5 mL/kg. The vehicle control group was orally administered a solution of 0.5% carboxymethyl cellulose containing 0.2% Tween 80 at a volume of 5 mL/kg. Just after the administration of the compound or vehicle, a glucose solution (2 g/kg/5 mL) was given orally.
Blood was collected from the caudal vein of an unanesthetized mice just before and 0.5, 1, and 2 hours after glucose loading. Plasma active GLP-1 level was determined by using RAT ENDOCRINE LINCOplex KIT (LINCO Research).

[3] = system: plasma active GLP-1 level; assay: Plasma active GLP-1 level in glucose-loaded normal (DPP4-positive) rats, Example 4; format: in vivo, rat; settings: Table 6, 10 mg/kg oral, DPP4-positive male Fisher rats, mean ± SEM, n=5 or 6
Description: Each test compound was suspended in a solution of 0.5% carboxymethyl cellulose containing 0.2% Tween 80 at the doses indicated in Table 4, 5 or 6, and administered to the test group orally at a volume of 5 mL/kg. The vehicle control group was orally administered a solution of 0.5% carboxymethyl cellulose containing 0.2% Tween 80 at a volume of 5 mL/kg. Just after the administration of the compound or vehicle, a glucose solution (2 g/kg/5 mL) was given orally.
Blood was collected from the caudal vein of an unanesthetized rat at appropriate time described in the table. Plasma active GLP-1 level was determined by using RAT ENDOCRINE LINCOplex KIT (LINCO Research).

[4] = system: plasma active GLP-1 level; assay: Plasma active GLP-1 level in glucose-loaded DPP4-deficient rats; format: in vivo, rat; settings: for GLP-1 concentration at each time point (hr) after oral administration: DPP4-deficient male Fisher rats, mean ± SEM, n=6
Description: DPP4-deficient male Fisher rats (purchased from Charles River Japan, Inc.)
The test compound was suspended in a solution of 0.5% carboxymethyl cellulose containing 0.2% Tween 80 at the doses indicated in Table 1, and administered to the test group orally at a volume of 5 mL/kg. The vehicle control group was orally administered a solution of 0.5% carboxymethyl cellulose containing 0.2% Tween 80 at a volume of 5 mL/kg. Just after the administration of the compound or vehicle, a glucose solution (2 g/kg/5 ml) was given orally.
Blood was collected from the caudal vein of an unanesthetized rat just before and 0.5, 1, and 3 hours after glucose loading. Plasma active GLP-1 level was determined by using RAT ENDOCRINE LINCOplex KIT (LINCO Research).

[5] = 0 hr (just before), 3 mg/kg oral
[6] = 0 hr (just before), 10 mg/kg oral
[7] = 0 hr (just before), 30 mg/kg oral

**Q.** For `N#C[C@@H]1CCCN1C(=O)CN[C@H]1CC[C@H](C(=O)N2CCOCC2)CC1` (relative stereo) [Compound B, (2S)-2-Cyano-1-[trans-4-(morpholinocarbonyl)cyclohexylamino]acetylpyrrolidine], which “GLP-1 concentration at each time point (hr) after oral administration” value (from here on “GLP-1 concentration at each time point”) [1, 5] is on record?
**A.** 7.2 ± 0.6 pM

**Q.** What about the “GLP-1 concentration at each time point” value ([1]; 0.2 hr, 3 mg/kg oral) of the same molecule?
**A.** 9.8 ± 0.7 pM

**Q.** What about the “GLP-1 concentration at each time point” value ([1]; 0.5 hr, 3 mg/kg oral) of the same molecule?
**A.** 9.4 ± 0.4 pM

**Q.** And the “GLP-1 concentration at each time point” value ([1]; 1 hr, 3 mg/kg oral)?
**A.** 8.3 ± 0.3 pM

**Q.** And the “GLP-1 concentration at each time point” value ([1]; 2 hr, 3 mg/kg oral)?
**A.** 7.9 ± 0.5 pM

**Q.** And the “GLP-1 concentration at each time point” value [2, 5]?
**A.** 18.4 ± 5.1 pM

**Q.** And the “GLP-1 concentration at each time point” value ([2]; 0.5 hr, 3 mg/kg oral)?
**A.** 30.0 ± 5.5 pM

**Q.** What about the “GLP-1 concentration at each time point” value ([2]; 1 hr, 3 mg/kg oral) of the same molecule?
**A.** 46.5 ± 10.1 pM

**Q.** What about the “GLP-1 concentration at each time point” value ([2]; 2 hr, 3 mg/kg oral) of the same molecule?
**A.** 25.0 ± 4.1 pM

**Q.** For `CN(C)C(=O)[C@H]1CC[C@H](NCC(=O)N2CCC[C@H]2C#N)CC1.O=S(=O)(O)c1ccccc1` (relative stereo) [Compound I, (2S)-2-cyano-1-[trans-4-(dimethylaminocarbonyl)cyclohexylamino]acetylpyrrolidine besylate], which “GLP-1 concentration at 2 hr after oral administration” value [3] is on record?
**A.** 4.0 ± 0.6 pM

**Q.** What does the source list for `OC[C@H]1O[C@@H](c2ccc(Cl)c(Cc3ccc(-c4cccc(F)n4)s3)c2)[C@H](O)[C@@H](O)[C@@H]1O` [Compound A, 1-(β-D-glucopyranosyl)-4-chloro-3-[5-(6-fluoro-2-pyridyl)-2-thienylmethyl]benzene]?
**A.** GLP-1 concentration at each time point (hr) after oral administration [4, 6]: 6.2 ± 1.3 pM; GLP-1 concentration at each time point (hr) after oral administration [4, 7]: 5.3 ± 0.7 pM; GLP-1 concentration at each time point (hr) after oral administration ([4]; 0.5 hr, 10 mg/kg oral): 24.5 ± 4.7 pM; GLP-1 concentration at each time point (hr) after oral administration ([4]; 0.5 hr, 30 mg/kg oral): 24.9 ± 3.8 pM; GLP-1 concentration at each time point (hr) after oral administration ([4]; 1 hr, 10 mg/kg oral): 31.3 ± 7.0 pM; GLP-1 concentration at each time point (hr) after oral administration ([4]; 1 hr, 30 mg/kg oral): 34.1 ± 5.7 pM; GLP-1 concentration at each time point (hr) after oral administration ([4]; 3 hr, 10 mg/kg oral): 21.9 ± 2.4 pM; GLP-1 concentration at each time point (hr) after oral administration ([4]; 3 hr, 30 mg/kg oral): 27.1 ± 2.1 pM; effect on plasma active GLP-1 level (in words) ([4]; DPP4-deficient rats, summary of Table 1): markedly increased; GLP-1 concentration at each time point (hr) after oral administration [1, 6]: 7.7 ± 0.4 pM; GLP-1 concentration at each time point (hr) after oral administration [1, 7]: 5.9 ± 0.3 pM; GLP-1 concentration at each time point (hr) after oral administration ([1]; 0.2 hr, 10 mg/kg oral): 7.9 ± 0.2 pM; GLP-1 concentration at each time point (hr) after oral administration ([1]; 0.2 hr, 30 mg/kg oral): 7.1 ± 0.3 pM; GLP-1 concentration at each time point (hr) after oral administration ([1]; 0.5 hr, 10 mg/kg oral): 10.2 ± 1.0 pM; GLP-1 concentration at each time point (hr) after oral administration ([1]; 0.5 hr, 30 mg/kg oral): 6.7 ± 0.4 pM; GLP-1 concentration at each time point (hr) after oral administration ([1]; 1 hr, 10 mg/kg oral): 9.5 ± 0.6 pM; GLP-1 concentration at each time point (hr) after oral administration ([1]; 1 hr, 30 mg/kg oral): 7.5 ± 0.9 pM; GLP-1 concentration at each time point (hr) after oral administration ([1]; 2 hr, 10 mg/kg oral): 9.6 ± 0.8 pM; GLP-1 concentration at each time point (hr) after oral administration ([1]; 2 hr, 30 mg/kg oral): 9.0 ± 0.9 pM; GLP-1 concentration at each time point (hr) after oral administration [2, 6]: 20.3 ± 9.6 pM; GLP-1 concentration at each time point (hr) after oral administration ([2]; 0.5 hr, 10 mg/kg oral): 42.6 ± 13.4 pM; GLP-1 concentration at each time point (hr) after oral administration ([2]; 1 hr, 10 mg/kg oral): 49.4 ± 12.0 pM; GLP-1 concentration at each time point (hr) after oral administration ([2]; 2 hr, 10 mg/kg oral): 30.9 ± 8.2 pM
